Patent publication US20240398787A1, “TREATMENT OF MAJOR DEPRESSIVE DISORDER” (AbbVie Inc., priority 2021, published 2024)

Tests used:
[1] = Weight changes, Clinical Study A; type: in vivo, human
Experimental: (§1) A global, multicenter, randomized, double-blind (DB), placebo-controlled, parallel-group, fixed-dose study compared cariprazine 1.5 mg/day and cariprazine 3 mg/day with placebo as an adjunctive treatment to ongoing ADT in outpatients with a diagnosis of MDD (via the Diagnostic and Statistical Manual of Mental Disorders, Fifth Edition [DSM-5]) having an inadequate response, as measured by the modified Antidepressant Treatment Response Questionnaire (ATRQ), to 1 to 3 antidepressants administered during the current episode at an adequate dose and adequate duration. Adequate dose was defined as a dose above the minimum labeled dose (per package insert). Adequate duration was defined as continuous ADT treatment for at least 6 weeks, with a minimum of 3 of 6 weeks above the minimal dose.
(§2) The study consisted of up to 14 days screening (with up to an additional 7 days of needed) and washout of prohibited medications followed by 6 weeks of double-blind (DB) treatment followed by a 4-week safety follow-up. At the end of the screening period, patients meeting the entry criteria for the study were randomized (1:1:1) to 1 of 3 double-blind treatment groups. Study treatment groups were: cariprazine 1.5 mg/day+antidepressant therapy and cariprazine 3 mg/day+antidepressant therapy. The control group received matching placebo+antidepressant therapy.
(§3) Dosage/Dose Regimen: Investigational product (cariprazine or placebo) in the form of capsules packaged in blister packs will be provided. No investigational product was administered during the screening/washout period; patients continued the same antidepressant and dose they were on at screening. Patients were taking more than one antidepressant at screening, regardless of the indication, discontinued all other antidepressants prior to baseline (Visit 2). During the double-blind treatment period (6 weeks), patients were administered 1 capsule orally per day in addition to their ongoing ADT. Patients in the 1.5 mg/day+ADT arm were administered 1.5 mg+ADT starting at Visit 2 (Week 0). Patients in the 3 mg/day+ADT arm were administered 1.5 mg+ADT starting at Visit 2 (Week 0) for 2 weeks and then titrate to 3 mg/day+ADT starting at Visit 4 (Week 2). Patients were supplied with identically appearing capsules of either cariprazine 1.5 mg, cariprazine 3 mg, or placebo.
A randomized, double-blind, placebo-controlled, multicenter trial with 759 participants was conducted in United States, Bulgaria, Estonia, Germany, Hungary, Ukraine, and the United Kingdom. […]

[2] = test system: patients with major depressive disorder (MDD); experiment: Adverse events and discontinuations during double-blind treatment period, Clinical Study A; type: in vivo, human; conditions: for TEAE: Akathisia / TEAE: Headache / TEAE: Insomnia / TEAE: Nausea / TEAE: Somnolence: N = 252; for Deaths: safety population; for Treatment-emergent adverse events (TEAEs): safety population N = 252
Experimental: as §1, §2, §3
Following a screening period of up to 14 days (with up to an additional 7 days if needed), which included a washout of prohibited psychotropic medications except for ongoing ADT, patients with a partial response to their antidepressant monotherapy were randomized into three treatment groups (1:1:1). One group received cariprazine 1.5 mg/d+ADT, one received cariprazine 3.0 mg/d+ADT, and one group received placebo+ADT. All participants randomized to cariprazine began on 1.5 mg/d; cariprazine 1.5 mg/d patients remained at that dosage, while cariprazine 3.0 mg/d patients received 1.5 mg/d for 2 weeks and increased to 3.0 mg/d on day 15.
Table 15 summarizes the most frequent TEAEs occurring in ≥5% in any treatment group, and Table 16 summarizes changes in weight. An AE was considered a treatment-emergent adverse event (TEAE) if the AE began or worsened (increased in severity or became serious) on or after the first dose of double-blinded investigational product.

[3] = 1.5 mg/day + ADT, double-blind period
[4] = 1.5 mg/day + ADT, randomized population N = 252
[5] = 3.0 mg/day + ADT, double-blind period
[6] = 3 mg/day + ADT, randomized population N = 253

## CN(C)C(=O)N[C@H]1CC[C@H](CCN2CCN(c3cccc(Cl)c3Cl)CC2)CC1 [Cariprazine, trans-N-{4-[2-[4-(2,3-dichlorophenyl)piperazin-1-yl]ethyl]cyclohexyl}-N′,N′-dimethylurea]
[1]; 1.5 mg + ADT, n = 252
  Weight change from baseline, mean (SD): 0.68 (2.5) kg
  Weight increase ≥7% from baseline: 10 (4.0) n (%)
[1]; 3 mg + ADT, n = 252
  Weight change from baseline, mean (SD): 0.78 (2.8) kg
[1]; all treatment groups
  Changes in weight at the end of treatment: < 1 kg
[2]; 1.5 mg/day + ADT
  TEAE: Akathisia: 13 (5.2) n (%)
  TEAE: Headache: 22 (8.7) n (%)
  TEAE: Insomnia: 18 (7.1) n (%)
  TEAE: Nausea: 20 (7.9) n (%)
  TEAE: Somnolence: 13 (5.2) n (%)
[2]; [3]
  Any Extrapyramidal Symptoms (EPS) TEAEs: 25 (9.9) n (%)
  Treatment-emergent Serious AE (TESAE): 1 (0.4) n (%)
  Deaths: 0 n (%)
  Treatment-emergent adverse events (TEAEs): 125 (49.6) n (%)
[2]; [4]
  Premature discontinuation due to Death: 0 n (%)
  Premature discontinuation due to Lack of Efficacy: 2 (0.8) n (%)
[2]; 3.0 mg/day + ADT
  TEAE: Akathisia: 20 (7.9) n (%)
  TEAE: Headache: 11 (4.4) n (%)
  TEAE: Insomnia: 16 (6.3) n (%)
  TEAE: Nausea: 16 (6.3) n (%)
  TEAE: Somnolence: 11 (4.4) n (%)
[2]; [5]
  Any Extrapyramidal Symptoms (EPS) TEAEs: 38 (15.1) n (%)
  TEAE leading to discontinuation from study: 18 (7.1) n (%)
  Treatment-emergent Serious AE (TESAE): 1 (0.4) n (%)
  Deaths: 0 n (%)
  Treatment-emergent adverse events (TEAEs): 124 (49.2) n (%)
[2]; [6]
  Premature discontinuation due to Adverse Event: 18 (7.1) n (%)
  Premature discontinuation due to Death: 0 n (%)
  Premature discontinuation due to Lack of Efficacy: 0 n (%)
[2]; six-week study period
  Most common adverse events occurring at ≥5% in the cariprazine groups: akathisia, nausea, insomnia, headache and somnolence
  Safety results (overall): no new safety signals identified
